Reference: publication PMC3395780 (Journal of Medicinal Chemistry, 2012)
Where two headings read alike, the source gives them in different places.

How the values were obtained:
NRP Mtb H37Rv cells = assay: Low-oxygen recovery assay; assay type: cell-based, Mycobacterium tuberculosis; conditions: non-replicating Mtb, anaerobic 10 d + 28-h recovery; ~90% inhibition
Mtb H37Rv [1] = assay: TB MIC – SRI, resazurin-based microplate assay; assay type: cell-based, Mycobacterium tuberculosis; conditions: lowest concentration inhibiting ≥90% growth
Mtb H37Rv [2] = assay: TB MIC – ITR; assay type: cell-based, Mycobacterium tuberculosis; conditions: ITR laboratory
[3] = test system: Vero cells (Vero ATCC CCL-81); assay: Cytotoxicity against Vero cells; conditions: 72 h incubation
[4] = Plasma pharmacokinetics after oral administration to female mice; assay type: in vivo, mouse
M. smegmatis = assay: Antimicrobial spectrum of activity; assay type: cell-based; conditions: relative to activity against Mtb; SI Table 1
M. abscessus = assay: Antimicrobial spectrum of activity; assay type: cell-based; conditions: SI Table 1
[5] = test system: L5178Y mouse lymphoma cells; assay: Mouse lymphoma cell tk+/−→tk−/− gene mutation; assay type: cell-based; conditions: for Mutation frequency response in MOLY assay: in the presence or absence of metabolic activation (S9), non-cytotoxic dose levels
[6] = test system: Salmonella typhimurium strain TA98; assay: Ames assay, plate incorporation method; assay type: cell-based
[7] = test system: Salmonella typhimurium strain TA100; assay: Ames assay, plate incorporation method; assay type: cell-based
[8] = test system: L5178Y mouse lymphoma cells; conditions: no reference printed at b52; cited from earlier work
[9] = in the presence and absence of metabolic activation (10% rat-liver S9)

3-((1-methoxybutan-2-yl)amino)benzo[e][1,2,4]triazine 1,4-dioxide [Compound 8i]
LORA MIC – ITR (NRP Mtb H37Rv cells): 4.9 µg/mL
TB MIC – SRI (Mtb H37Rv [1]): 10.0 µg/mL
TB MIC – ITR (Mtb H37Rv [2]): 6.6 µg/mL
Vero Tox CC50 [3]: >50 µg/mL

7-chloro-3-((1-methoxybutan-2-yl)amino)benzo[e][1,2,4]triazine 1,4-dioxide [Compound 15bi]
TB MIC – SRI (Mtb H37Rv [1]): 1.2 µg/mL

7-fluoro-3-((1-methoxybutan-2-yl)amino)benzo[e][1,2,4]triazine 1,4-dioxide [Compound 15ai]
LORA MIC – ITR (NRP Mtb H37Rv cells): 1.9 µg/mL
TB MIC – SRI (Mtb H37Rv [1]): 5.0 µg/mL
TB MIC – ITR (Mtb H37Rv [2]): 2.0 µg/mL
Vero Tox CC50 [3]: 6.3 µg/mL

CCNc1n[n+]([O-])c2ccccc2[n+]1[O-] [Compound 8a, 3-(ethylamino)benzo[e][1,2,4]triazine 1,4-dioxide]
Plasma drug concentration at the 24 hr time point ([4]; mouse, in vivo, po, 100 mg/kg): lower than the limit of quantitation
Antimicrobial activity against M. smegmatis (M. smegmatis): weaker activity
Antimicrobial activity against M. abscessus (M. abscessus): resistant

CCNc1n[n+]([O-])c2cc3c(cc2[n+]1[O-])CCC3 [Compound 15fa, 3-(ethylamino)-7,8-dihydro-6H-indeno[5,6-e][1,2,4]triazine 1,4-dioxide]
Mutagenic potential, +S9, 4-Hr Exposure ([5]; dose 10 μg/mL): Positive
Mutagenic potential, +S9, 24-Hr Exposure ([5]; dose 10 μg/mL): Positive
Mutagenic potential, −S9, 4-Hr Exposure ([5]; dose 10 μg/mL): Positive
Mutagenic potential, +S9, 4-Hr Exposure ([5]; dose 25 μg/mL): Positive
Mutagenic potential, +S9, 24-Hr Exposure ([5]; dose 25 μg/mL): Positive
Mutagenic potential, −S9, 4-Hr Exposure ([5]; dose 25 μg/mL): Positive
Mutagenic potential, +S9, 4-Hr Exposure ([5]; dose 50 μg/mL): Positive
Mutagenic potential, +S9, 24-Hr Exposure ([5]; dose 50 μg/mL): Positive
Mutagenic potential, −S9, 4-Hr Exposure ([5]; dose 50 μg/mL): Positive
Mutagenic potential, +S9, 4-Hr Exposure ([5]; dose 100 μg/mL): Positive
Mutagenic potential, +S9, 24-Hr Exposure ([5]; dose 100 μg/mL): Positive
Mutagenic potential, −S9, 4-Hr Exposure ([5]; dose 100 μg/mL): Positive
Mutation frequency response in MOLY assay [5]: significant increase in mutation frequency
Number of revertant colonies, strain TA98 [6]: dose-related increases in the number of revertant colonies
Number of revertant colonies, strain TA100 [7]: dose-related increases in the number of revertant colonies

[O-][n+]1nc(N2CCCC2)[n+]([O-])c2cc3c(cc21)CCC3 [Compound 20q, 3-(pyrrolidin-1-yl)-7,8-dihydro-6H-indeno[5,6-e][1,2,4]triazine 1,4-dioxide]
Mutagenic activity in MOLY assay ([5]; at concentrations up to 100 μg/mL): no mutagenic activity
Mutagenic potential, +S9, 4-Hr Exposure ([5]; dose 10 μg/mL): Negative
Mutagenic potential, −S9, 4-Hr Exposure ([5]; dose 10 μg/mL): Negative
Mutagenic potential, −S9, 24-Hr Exposure ([5]; dose 10 μg/mL): Negative
Mutagenic potential, +S9, 4-Hr Exposure ([5]; dose 25 μg/mL): Negative ^a
Mutagenic potential, +S9, 24-Hr Exposure ([5]; dose 25 μg/mL): Negative
Mutagenic potential, −S9, 4-Hr Exposure ([5]; dose 25 μg/mL): Negative
Mutagenic potential, −S9, 24-Hr Exposure ([5]; dose 25 μg/mL): Negative
Mutagenic potential, +S9, 4-Hr Exposure ([5]; dose 50 μg/mL): Negative
Mutagenic potential, +S9, 24-Hr Exposure ([5]; dose 50 μg/mL): Negative
Mutagenic potential, −S9, 4-Hr Exposure ([5]; dose 50 μg/mL): Negative
Mutagenic potential, −S9, 24-Hr Exposure ([5]; dose 50 μg/mL): Negative
Mutagenic potential, +S9, 4-Hr Exposure ([5]; dose 100 μg/mL): Negative
Mutagenic potential, +S9, 24-Hr Exposure ([5]; dose 100 μg/mL): Negative
Mutagenic potential, −S9, 4-Hr Exposure ([5]; dose 100 μg/mL): Negative
Mutagenic potential, −S9, 24-Hr Exposure ([5]; dose 100 μg/mL): Negative
Mutation frequency response in MOLY assay [5]: negative response
Plasma drug concentration at the 24 hr time point ([4]; female mice, 100 mg/kg po, n = 3 per time point): lower than the limit of quantitation
Number of revertant colonies, strain TA98 [6, 9]: dose-related increases in the number of revertant colonies
Number of revertant colonies, strain TA100 [7, 9]: dose-related increases in the number of revertant colonies
Antimicrobial activity against M. smegmatis (M. smegmatis): weaker activity
Antimicrobial activity against M. abscessus (M. abscessus): resistant

Nc1n[n+]([O-])c2ccccc2[n+]1[O-] [TPZ, tirapazamine]
Mutagenicity in MOLY assay [8]: mutagenic
